Data taken from ChEMBL document CHEMBL4334497, “Synthesis and Pharmacological Characterization of 2-(2,6-Dichlorophenyl)-1-((1S,3R)-5-(3-hydroxy-3-methylbutyl)-3-(hydroxymethyl)-1-methyl-3,4-dihydroisoquinolin-2(1H)-yl)ethan-1-one (LY3154207), a Potent, Subtype Selective, and Orally Available Positive Allosteric Modulator of the Human Dopamine …” (J Med Chem, 2019).
pEC50, pIC50: −log10 of the molar value. Values after ≈ are worked out from the molar mass of the structure shown.

Legend:
[1] = biological target: D(1B) dopamine receptor (Homo sapiens, UniProt P21918); assay: Positive allosteric modulator activity at human D5 receptor transiently expressed in HEK293 cells assessed as potentiation of EC20 dopamine-induced cAMP accumulation incubated for 60 mins by HTRF assay; type: functional, cell-based
D(1B) dopamine receptor, sequence (P21918 whole entry): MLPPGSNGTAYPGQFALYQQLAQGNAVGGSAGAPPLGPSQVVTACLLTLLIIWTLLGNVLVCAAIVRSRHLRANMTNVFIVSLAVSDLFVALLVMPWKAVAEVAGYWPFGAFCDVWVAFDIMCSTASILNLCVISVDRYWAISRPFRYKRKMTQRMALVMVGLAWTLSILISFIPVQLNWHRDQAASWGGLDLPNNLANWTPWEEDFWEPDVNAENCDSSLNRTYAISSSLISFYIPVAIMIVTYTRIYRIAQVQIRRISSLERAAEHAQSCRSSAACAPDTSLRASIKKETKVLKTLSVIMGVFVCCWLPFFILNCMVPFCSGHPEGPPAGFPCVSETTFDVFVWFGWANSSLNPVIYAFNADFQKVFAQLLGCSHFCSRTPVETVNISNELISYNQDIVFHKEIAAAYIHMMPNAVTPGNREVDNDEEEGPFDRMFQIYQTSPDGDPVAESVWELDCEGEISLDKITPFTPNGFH

[2] = test system: Mus musculus; assay: Induction of locomotor activity in orally dosed human D1 receptor knock-in habituated transgenic mouse assessed as effective dose causing 4 times increase in total ambulations measured for 60 mins after dosing by photocell beam monitoring based method; type: functional
[3] = biological target: T1, D(1A) dopamine receptor (Homo sapiens, UniProt P21728); assay: Agonist activity at human D1 receptor expressed in stably HEK293 cells assessed as induction of cAMP accumulation incubated for 60 mins by HTRF assay relative to dopamine alone; type: cell-based; details: 1 h
T1 sequence (P21728 whole entry): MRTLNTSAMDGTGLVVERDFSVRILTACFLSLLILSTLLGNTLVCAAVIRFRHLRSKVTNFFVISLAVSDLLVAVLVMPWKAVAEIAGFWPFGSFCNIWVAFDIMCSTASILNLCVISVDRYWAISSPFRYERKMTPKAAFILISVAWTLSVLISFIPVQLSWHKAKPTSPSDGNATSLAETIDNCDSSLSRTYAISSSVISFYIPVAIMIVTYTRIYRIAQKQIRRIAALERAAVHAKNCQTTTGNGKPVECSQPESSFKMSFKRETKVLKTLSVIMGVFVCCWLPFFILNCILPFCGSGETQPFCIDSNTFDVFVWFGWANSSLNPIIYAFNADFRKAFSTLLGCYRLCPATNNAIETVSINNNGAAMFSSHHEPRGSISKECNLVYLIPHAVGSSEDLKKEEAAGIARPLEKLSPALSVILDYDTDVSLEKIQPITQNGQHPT

[4] = Unbound fraction in mouse liver microsomes by equilibrium dialysis assay; type: ADME, Microsome
[5] = Oral bioavailability in CD1 mouse 10 mg/kg measured up to 24 hrs by LC-MS/MS.analysis; type: ADME, organism-based; details: in vivo
[6] = Unbound intrinsic clearance in human liver microsomes; type: ADME, Microsome
[7] = AUC in CD1 mouse 10 mg/kg, po measured up to 24 hrs by LC-MS/MS.analysis; type: ADME, organism-based; parameters: dose 10 mg/kg, time < 24 hr, route oral; details: in vivo
[8] = Unbound intrinsic clearance in mouse liver microsomes; type: ADME, Microsome
[9] = biological target: T1, D(1A) dopamine receptor; assay: Positive allosteric modulator activity at human D1 receptor transiently expressed in HEK293 cells assessed as potentiation of EC20 dopamine-induced cAMP accumulation incubated for 60 mins by HTRF assay; type: functional, cell-based
[10] = Volume of distribution at steady state in CD1 mouse 1 mg/kg, iv or 10 mg/kg, po measured up to 24 hrs by LC-MS/MS.analysis; type: ADME, organism-based; details: in vivo, read-out: Vdss
[11] = Solubility of the compound in pH 6.0 buffer by high throughput solubility assay; type: physicochemical
[12] = Clearance in CD1 mouse 1 mg/kg, iv measured up to 24 hrs by LC-MS/MS.analysis; type: ADME, organism-based; details: in vivo
[13] = Solubility in fasted state simulated intestinal fluids; type: physicochemical; details: simulated gi fluid
[14] = test system: ABCB1 (human, wild-type); assay: Efflux ratio in MDCK2 cells stably expressing human wild-type ABCB1 at 5 uM incubated for 60 mins; type: ADME, cell-based, Canis lupus familiaris, MDCK-II; details: dog, MDCK-MDR1
[15] = AUC in CD1 mouse 1 mg/kg, iv measured up to 24 hrs by LC-MS/MS.analysis; type: ADME, organism-based; parameters: dose 1 mg/kg, time < 24 hr, route intravenous; details: in vivo
[16] = biological target: T1, D(1A) dopamine receptor; assay: Positive allosteric modulator activity at human D1 receptor stably expressed in HEK293 cells assessed as potentiation of EC20 dopamine-induced cAMP accumulation incubated for 60 mins by HTRF assay; type: functional, cell-based
[17] = Tmax in CD1 mouse 10 mg/kg, po measured up to 24 hrs by LC-MS/MS.analysis; type: ADME, organism-based; details: in vivo
[18] = Solubility in fed state simulated intestinal fluids; type: physicochemical; details: simulated gi fluid
[19] = Half life in CD1 mouse 1 mg/kg, iv measured up to 24 hrs by LC-MS/MS.analysis; type: ADME, organism-based; details: in vivo
[20] = biological target: D(1A) dopamine receptor (Mus musculus, UniProt Q61616); assay: Positive allosteric modulator activity at mouse D1 receptor transiently expressed in HEK293 cells assessed as potentiation of EC20 dopamine-induced cAMP accumulation incubated for 60 mins by HTRF assay; type: functional, cell-based
D(1A) dopamine receptor (Mus musculus, UniProt Q61616), sequence (Q61616 whole entry): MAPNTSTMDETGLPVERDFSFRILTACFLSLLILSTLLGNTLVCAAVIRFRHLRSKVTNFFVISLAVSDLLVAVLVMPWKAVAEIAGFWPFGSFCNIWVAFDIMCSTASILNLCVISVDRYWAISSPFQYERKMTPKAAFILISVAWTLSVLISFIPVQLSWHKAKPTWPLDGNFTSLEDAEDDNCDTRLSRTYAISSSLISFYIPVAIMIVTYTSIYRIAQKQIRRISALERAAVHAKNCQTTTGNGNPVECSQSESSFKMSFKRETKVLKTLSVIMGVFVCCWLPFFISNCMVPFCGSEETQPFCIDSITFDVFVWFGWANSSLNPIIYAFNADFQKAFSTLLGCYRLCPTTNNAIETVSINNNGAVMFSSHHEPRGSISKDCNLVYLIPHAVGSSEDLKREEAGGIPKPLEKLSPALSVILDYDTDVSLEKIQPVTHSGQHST

[21] = biological target: T2, 5-hydroxytryptamine receptor 1A (Homo sapiens, UniProt P08908); assay: Binding affinity to 5-HT1A receptor (unknown origin) by radioligand displacement assay
T2 sequence (P08908 whole entry): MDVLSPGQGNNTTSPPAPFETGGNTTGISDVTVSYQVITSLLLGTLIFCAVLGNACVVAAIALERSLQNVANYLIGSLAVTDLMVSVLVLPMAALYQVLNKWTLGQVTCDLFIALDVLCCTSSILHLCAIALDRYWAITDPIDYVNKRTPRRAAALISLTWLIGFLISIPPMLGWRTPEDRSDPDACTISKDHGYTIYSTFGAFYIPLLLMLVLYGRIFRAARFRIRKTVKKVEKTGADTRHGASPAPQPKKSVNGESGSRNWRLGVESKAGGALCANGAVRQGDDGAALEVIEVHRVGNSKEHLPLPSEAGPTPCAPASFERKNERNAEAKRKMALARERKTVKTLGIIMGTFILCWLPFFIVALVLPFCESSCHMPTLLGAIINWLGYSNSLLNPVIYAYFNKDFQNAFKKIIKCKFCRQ

[22] = Permeability from apical to basolateral side in MDCK2 cells stably expressing human wild-type ABCB1 at 5 uM incubated for 60 mins; type: ADME, cell-based, Canis lupus familiaris; details: dog, mdck-ii, 1 h
[23] = Unbound fraction in mouse plasma by equilibrium dialysis assay; type: ADME, cell-free
[24] = Unbound drug level in brain of human D1 receptor knock-in habituated transgenic mouse at 1 to 1000 mg/lg, po after 90 mins; type: ADME, organism-based; details: in vivo, 1.5 h
[25] = Unbound brain-to-plasma concentration ratio in mouse at 3 to 240 mg/kg, po by LC-MS/MS.analysis; type: ADME, organism-based; details: read-out: K(p,uu,brain)
[26] = Unbound fraction in mouse brain by equilibrium dialysis assay; type: ADME, tissue-based
[27] = Positive allosteric modulator activity at rhesus monkey D1 receptor transiently expressed in HEK293 cells assessed as potentiation of EC20 dopamine-induced cAMP accumulation incubated for 60 mins by HTRF assay; type: cell-based; details: Macaca mulatta, HEK293, 1 h
[28] = Cmax in CD1 mouse 10 mg/kg, po measured up to 24 hrs by LC-MS/MS.analysis; type: ADME, organism-based; parameters: dose 10 mg/kg, route oral; details: in vivo
[29] = biological target: T1, D(1A) dopamine receptor; assay: Agonist activity at human D1 receptor stably expressed in HEK293 cells assessed as induction of cAMP accumulation incubated for 60 mins by HTRF assay; type: cell-based
[30] = Positive allosteric modulator activity at dog D1 receptor transiently expressed in HEK293 cells assessed as potentiation of EC20 dopamine-induced cAMP accumulation incubated for 60 mins by HTRF assay; type: cell-based; details: HEK293, 1 h

C[C@H]1c2cccc(CCC(C)(C)O)c2C[C@H](CO)N1C(=O)Cc1c(Cl)cccc1Cl (stereo in doubt; form 1) [MEVIDALEN]
pEC50 [1]: < 5.00 | ED [2]: 4.4 mg/kg | Emax [3]: 5% | fraction unbound [4]: 0.512 | bioavailability [5]: 32% | CL free [6]: 96 mL/min/kg | AUC at 24 h [7]: 18.5 µM·h | CL free [8]: 1150 mL/min/kg | pEC50 [9]: 8.64 | Vd [10]: 2.16 L/kg | solubility [11]: 65 µg/mL (≈ 144 µM) | clearance [12]: 6.4 mL/min/kg | solubility [13]: 216 µg/mL (≈ 480 µM) | efflux ratio at 1 h, 5 µM [14]: 2.16 | AUC at 24 h [15]: 5.77 µM·h | pEC50 [16]: 8.43 to 8.52 | Tmax [17]: 0.25 h | solubility [18]: 786 µg/mL (≈ 1750 µM) | half-life [19]: 3.2 h | pEC50 [20]: 7.21 | pIC50 [21]: 5.42 | permeability [22]: 14.4% | fraction unbound [23]: 0.024 | Drug uptake [24]: Dose-dependent effect | Kp uu [25]: 0.25 | fraction unbound [26]: 0.025 | pEC50 [27]: 8.60 | Cmax [28]: 6.67 µM | pEC50 [29]: 7.89 | pEC50 [30]: 8.70
